pIC50: −log10 of the molar value. Where two headings read alike, the source gives them in different places.
Legend:
HDAC1 = HDAC1 (Homo sapiens (Human), UniProt Q13547); assay: HDAC1 enzymatic assay; type: biochemical
How it was run: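 Compound inhibition of human HDAC1 (0.5 ng enzyme, 10 uM substrate) was assessed by fluorescence after developer treatment, excitation 360 nm and emission 460 nm. Percent activity was normalized to no-compound (100%) and no-enzyme (0%) controls, plotted against concentration, and fitted to a sigmoidal dose-response curve in Graphpad Prism to obtain IC50 at half-maximal activity.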

HDAC2 = HDAC2 (Homo sapiens (Human), UniProt Q92769); assay: HDAC2 enzymatic assay; type: biochemical; details: selectivity profile; read-out: HDAC Enzyme IC50, HDAC 2
Protocol: (§1) All enzymatic reactions were conducted in duplicate at room temperature for 17 hours in a 50 μl mixture containing HDAC assay buffer (50 mM Tris-HCl, pH 7.4, 137 mM NaCl, 2.7 mM KCl, 0.05% Tween 20, 5 μg BSA), an HDAC substrate, an HDAC enzyme, and a test compound. Compound dilution was prepared ten-fold higher than the final concentration of the compounds with 10% DMSO in HDAC assay buffer and 5 μl of the dilution was added to a 50 μl reaction so that the final concentration of DMSO is 1% in all of reactions. After enzymatic reactions, 50 μl of HDAC Developer was added to each well and the plate was incubated at room temperature for an additional 20 minutes. Fluorescence intensity was measured at an excitation of 360 nm and an emission of 460 nm using a Tecan Infinite M1000 or Biotek Synergy microplate reader.
(§2) The fluorescent intensity data were analyzed using the computer software, Graphpad Prism. In the absence of the compound, the fluorescent intensity (Ft) in each data set was defined as 100% activity. In the absence of HDAC, the fluorescent intensity (Fb) in each data set was defined as 0% activity. The percent activity in the presence of each compound was calculated according to the following equation: % activity=(F−Fb)/(Ft−Fb), where F=the fluorescent intensity in the presence of the compound.
(§3) The values of % activity versus a series of compound concentrations were then plotted using non-linear regression analysis of Sigmoidal dose-response curve generated with the equation Y=B+(T−B)/1+10((Log EC50−X)×Hill Slope), where Y=percent activity, B=minimum percent activity, T=maximum percent activity, X=logarithm of compound and Hill Slope=slope factor or Hill coefficient. The IC50 value was determined by the concentration causing a half-maximal percent activity.
(§4) HDAC1 enzymatic assays contained 0.5 ng HDAC1 and 10 uM of HDAC substrate. HDAC2 enzymatic assays contained 0.5 ng HDAC2 and 10 uM of HDAC substrate. HDAC3 enzymatic assays contained 0.4 ng HDAC3/NCOR2 and 10 uM of HDAC substrate. HDAC4 enzymatic assays contained 0.02 ng HDAC4 and 2 uM of HDAC substrate. HDAC5 enzymatic assays contained 0.5 ng HDAC5 and 2 uM of HDAC substrate. HDAC6 enzymatic assays contained 2 ng HDAC6 and 10 uM of HDAC substrate. HDAC7 enzymatic assays contained 0.05 ng HDAC7 and 2 uM of HDAC substrate. HDAC8 enzymatic assays contained 5 ng HDAC8 and 2 uM of HDAC substrate. HDAC9 enzymatic assays contained 1 ng HDAC9 and 2 uM of HDAC substrate. HDAC10 enzymatic assays contained 75 ng HDAC10 and 10 uM of HDAC substrate. HDAC11 enzymatic assays contained 5 ng HDAC11 and 2 uM of HDAC substrate.

HDAC3/NCOR2 = HDAC3/NCOR2 (Homo sapiens (Human), UniProt O15379); assay: HDAC3 enzymatic assay; type: biochemical; details: selectivity profile; read-out: HDAC Enzyme IC50, HDAC 3
HDAC3/NCOR2, sequence (O15379 whole entry, looked up, species assumed): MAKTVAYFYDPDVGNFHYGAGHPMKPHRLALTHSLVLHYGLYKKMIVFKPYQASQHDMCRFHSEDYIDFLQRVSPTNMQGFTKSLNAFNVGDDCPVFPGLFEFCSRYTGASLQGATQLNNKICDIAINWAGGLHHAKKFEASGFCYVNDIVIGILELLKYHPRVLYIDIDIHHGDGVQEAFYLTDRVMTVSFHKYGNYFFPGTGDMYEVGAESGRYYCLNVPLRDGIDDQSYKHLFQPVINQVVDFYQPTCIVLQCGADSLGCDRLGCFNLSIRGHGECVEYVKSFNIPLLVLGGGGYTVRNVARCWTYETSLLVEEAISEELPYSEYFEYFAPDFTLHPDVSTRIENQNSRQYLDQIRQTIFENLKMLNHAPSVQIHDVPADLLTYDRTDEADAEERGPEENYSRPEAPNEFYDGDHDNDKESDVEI
HDAC3/NCOR2, sequence (Q9Y618 whole entry partner, looked up, species assumed): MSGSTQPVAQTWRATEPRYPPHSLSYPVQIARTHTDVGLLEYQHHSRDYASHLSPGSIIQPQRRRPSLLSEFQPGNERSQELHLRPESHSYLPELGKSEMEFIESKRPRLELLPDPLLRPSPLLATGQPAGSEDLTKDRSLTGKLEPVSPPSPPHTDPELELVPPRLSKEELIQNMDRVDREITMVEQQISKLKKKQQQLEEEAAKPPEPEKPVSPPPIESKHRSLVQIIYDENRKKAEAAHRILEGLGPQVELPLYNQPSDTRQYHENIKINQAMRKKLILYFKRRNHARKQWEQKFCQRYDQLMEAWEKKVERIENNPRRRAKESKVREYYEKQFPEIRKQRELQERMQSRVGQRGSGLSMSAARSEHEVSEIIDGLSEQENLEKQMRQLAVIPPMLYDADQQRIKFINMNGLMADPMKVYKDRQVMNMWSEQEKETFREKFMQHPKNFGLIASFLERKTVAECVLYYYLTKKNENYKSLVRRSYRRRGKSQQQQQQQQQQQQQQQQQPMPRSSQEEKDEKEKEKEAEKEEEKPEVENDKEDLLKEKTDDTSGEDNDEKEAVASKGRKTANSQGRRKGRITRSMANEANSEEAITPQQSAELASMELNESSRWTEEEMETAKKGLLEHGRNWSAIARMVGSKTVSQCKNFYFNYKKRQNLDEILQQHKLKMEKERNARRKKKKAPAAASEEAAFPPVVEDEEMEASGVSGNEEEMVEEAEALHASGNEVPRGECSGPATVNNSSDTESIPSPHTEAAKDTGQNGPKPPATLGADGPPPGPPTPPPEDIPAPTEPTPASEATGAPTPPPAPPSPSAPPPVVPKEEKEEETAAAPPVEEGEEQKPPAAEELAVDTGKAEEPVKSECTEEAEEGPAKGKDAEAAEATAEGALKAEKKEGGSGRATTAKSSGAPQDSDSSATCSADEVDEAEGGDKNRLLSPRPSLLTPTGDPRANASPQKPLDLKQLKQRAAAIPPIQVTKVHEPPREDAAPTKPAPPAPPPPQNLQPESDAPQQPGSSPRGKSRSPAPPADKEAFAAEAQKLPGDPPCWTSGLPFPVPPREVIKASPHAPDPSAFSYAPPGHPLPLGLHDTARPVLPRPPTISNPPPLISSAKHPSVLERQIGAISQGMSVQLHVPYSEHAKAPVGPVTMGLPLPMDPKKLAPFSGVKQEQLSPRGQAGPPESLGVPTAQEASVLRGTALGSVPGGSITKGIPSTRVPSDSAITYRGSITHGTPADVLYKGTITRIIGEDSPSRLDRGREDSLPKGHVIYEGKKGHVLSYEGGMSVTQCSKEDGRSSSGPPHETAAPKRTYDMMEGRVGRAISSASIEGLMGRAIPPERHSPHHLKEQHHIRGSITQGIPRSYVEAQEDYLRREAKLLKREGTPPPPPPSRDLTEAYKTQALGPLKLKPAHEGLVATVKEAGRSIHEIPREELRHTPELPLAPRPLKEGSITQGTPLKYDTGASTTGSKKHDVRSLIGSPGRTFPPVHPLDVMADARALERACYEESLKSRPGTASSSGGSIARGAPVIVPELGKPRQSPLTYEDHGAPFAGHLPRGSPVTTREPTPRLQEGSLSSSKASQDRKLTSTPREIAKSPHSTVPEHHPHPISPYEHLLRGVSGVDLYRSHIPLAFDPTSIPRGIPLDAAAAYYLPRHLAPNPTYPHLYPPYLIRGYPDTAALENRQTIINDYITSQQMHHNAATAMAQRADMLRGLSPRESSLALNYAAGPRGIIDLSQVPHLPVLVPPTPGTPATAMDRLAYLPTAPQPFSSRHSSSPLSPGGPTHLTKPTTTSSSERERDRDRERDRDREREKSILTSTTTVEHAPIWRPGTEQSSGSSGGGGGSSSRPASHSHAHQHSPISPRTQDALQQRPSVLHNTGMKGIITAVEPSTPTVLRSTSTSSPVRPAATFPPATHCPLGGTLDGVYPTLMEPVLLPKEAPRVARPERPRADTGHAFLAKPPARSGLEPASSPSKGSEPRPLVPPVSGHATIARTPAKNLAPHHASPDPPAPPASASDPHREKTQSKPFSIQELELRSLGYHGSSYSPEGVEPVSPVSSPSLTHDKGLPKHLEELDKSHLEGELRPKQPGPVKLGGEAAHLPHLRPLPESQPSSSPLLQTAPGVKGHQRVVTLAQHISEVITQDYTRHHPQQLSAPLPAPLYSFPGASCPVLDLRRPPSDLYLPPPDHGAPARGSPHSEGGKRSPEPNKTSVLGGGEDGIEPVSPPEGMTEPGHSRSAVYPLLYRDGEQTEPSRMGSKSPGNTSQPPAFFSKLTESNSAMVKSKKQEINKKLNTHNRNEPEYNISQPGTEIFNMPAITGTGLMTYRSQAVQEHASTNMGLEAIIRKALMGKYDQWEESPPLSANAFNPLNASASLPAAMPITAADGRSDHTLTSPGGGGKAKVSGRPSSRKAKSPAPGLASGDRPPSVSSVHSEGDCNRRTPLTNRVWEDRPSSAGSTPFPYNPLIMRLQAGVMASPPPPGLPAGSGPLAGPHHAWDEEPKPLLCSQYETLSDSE
Protocol: as §1, §2, §3, §4

HDAC4 = HDAC4 (Homo sapiens (Human), UniProt P56524); assay: HDAC4 enzymatic assay; type: biochemical; details: selectivity profile; read-out: HDAC Enzyme IC50, HDAC 4
Protocol: as §1, §2, §3, §4

HDAC5 = HDAC5 (Homo sapiens (Human), UniProt Q9UQL6); assay: HDAC5 enzymatic assay; type: biochemical; details: selectivity profile; read-out: HDAC Enzyme IC50, HDAC 5
Protocol: as §1, §2, §3, §4

HDAC6 = HDAC6 (Homo sapiens (Human), UniProt Q9UBN7); assay: HDAC6 enzymatic assay; type: biochemical
How it was run: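 Following a 17 hour room-temperature incubation of 2 ng HDAC6 with 10 uM substrate and compound, 50 μl developer was added for another 20 minutes, and fluorescence (excitation 360 nm, emission 460 nm) was recorded. Activity was normalized to no-compound (100%) and no-enzyme (0%) wells, and IC50 came from sigmoidal dose-response fitting in Graphpad Prism.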

HDAC7 = HDAC7 (Homo sapiens (Human), UniProt Q8WUI4); assay: HDAC7 enzymatic assay; type: biochemical; details: selectivity profile; read-out: HDAC Enzyme IC50, HDAC 7
Protocol: as §1, §2, §3, §4

HDAC8 = HDAC8 (Homo sapiens (Human), UniProt Q9BY41); assay: HDAC8 enzymatic assay; type: biochemical; details: selectivity profile; read-out: HDAC Enzyme IC50, HDAC 8
Protocol: as §1, §2, §3, §4

HDAC9 = HDAC9 (Homo sapiens (Human), UniProt Q9UKV0); assay: HDAC9 enzymatic assay; type: biochemical; details: selectivity profile; read-out: HDAC Enzyme IC50, HDAC 9
HDAC9, sequence (Q9UKV0 whole entry, species assumed): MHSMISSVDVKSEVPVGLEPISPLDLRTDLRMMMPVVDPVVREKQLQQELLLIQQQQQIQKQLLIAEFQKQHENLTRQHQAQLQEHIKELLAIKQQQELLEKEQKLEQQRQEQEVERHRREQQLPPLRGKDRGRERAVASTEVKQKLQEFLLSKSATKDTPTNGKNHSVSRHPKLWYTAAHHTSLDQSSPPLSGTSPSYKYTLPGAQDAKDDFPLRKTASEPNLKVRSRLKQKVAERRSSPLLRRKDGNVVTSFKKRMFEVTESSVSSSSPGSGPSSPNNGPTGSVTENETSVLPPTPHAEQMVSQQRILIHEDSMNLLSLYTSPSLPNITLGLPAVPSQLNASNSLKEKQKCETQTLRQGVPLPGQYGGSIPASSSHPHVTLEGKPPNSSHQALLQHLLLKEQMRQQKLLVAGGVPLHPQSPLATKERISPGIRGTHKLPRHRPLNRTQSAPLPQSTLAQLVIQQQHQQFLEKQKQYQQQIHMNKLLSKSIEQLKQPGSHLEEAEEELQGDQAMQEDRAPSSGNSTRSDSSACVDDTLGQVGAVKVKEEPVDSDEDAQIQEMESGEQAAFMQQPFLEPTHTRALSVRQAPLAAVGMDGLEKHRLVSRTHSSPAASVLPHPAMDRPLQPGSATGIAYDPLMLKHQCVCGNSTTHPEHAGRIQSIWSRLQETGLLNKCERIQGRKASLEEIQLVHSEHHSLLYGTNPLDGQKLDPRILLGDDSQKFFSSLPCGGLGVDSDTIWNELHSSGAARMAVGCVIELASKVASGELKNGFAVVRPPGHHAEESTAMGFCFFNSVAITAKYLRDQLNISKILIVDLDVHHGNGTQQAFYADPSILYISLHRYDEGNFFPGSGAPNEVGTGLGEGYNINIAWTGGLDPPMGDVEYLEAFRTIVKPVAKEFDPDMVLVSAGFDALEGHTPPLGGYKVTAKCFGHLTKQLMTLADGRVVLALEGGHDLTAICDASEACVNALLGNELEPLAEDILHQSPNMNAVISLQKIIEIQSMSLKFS
Protocol: as §1, §2, §3, §4

HDAC10 = HDAC10 (Homo sapiens (Human), UniProt Q969S8); assay: HDAC10 enzymatic assay; type: biochemical; details: selectivity profile; read-out: HDAC Enzyme IC50, HDAC 10
HDAC10, sequence (Q969S8 whole entry, species assumed): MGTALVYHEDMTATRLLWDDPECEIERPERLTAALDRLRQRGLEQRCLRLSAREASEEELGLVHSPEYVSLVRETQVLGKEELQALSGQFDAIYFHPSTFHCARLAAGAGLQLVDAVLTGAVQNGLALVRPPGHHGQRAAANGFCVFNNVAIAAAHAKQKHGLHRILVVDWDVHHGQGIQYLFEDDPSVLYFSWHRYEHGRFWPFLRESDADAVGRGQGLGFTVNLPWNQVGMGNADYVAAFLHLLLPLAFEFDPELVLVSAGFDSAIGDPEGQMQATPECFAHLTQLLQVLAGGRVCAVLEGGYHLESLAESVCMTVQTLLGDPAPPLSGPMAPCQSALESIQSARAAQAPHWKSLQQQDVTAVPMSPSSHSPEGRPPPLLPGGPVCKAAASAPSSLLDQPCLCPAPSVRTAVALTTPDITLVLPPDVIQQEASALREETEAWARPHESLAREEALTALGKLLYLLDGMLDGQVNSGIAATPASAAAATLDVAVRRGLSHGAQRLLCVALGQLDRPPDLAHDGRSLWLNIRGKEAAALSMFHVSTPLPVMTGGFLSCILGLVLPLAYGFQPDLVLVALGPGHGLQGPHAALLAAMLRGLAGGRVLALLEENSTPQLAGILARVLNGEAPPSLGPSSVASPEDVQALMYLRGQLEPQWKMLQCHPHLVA
Protocol: as §1, §2, §3, §4

HDAC11 = HDAC11 (Homo sapiens (Human), UniProt Q96DB2); assay: HDAC11 enzymatic assay; type: biochemical; details: selectivity profile; read-out: HDAC Enzyme IC50, HDAC 11
HDAC11, sequence (Q96DB2 whole entry, species assumed): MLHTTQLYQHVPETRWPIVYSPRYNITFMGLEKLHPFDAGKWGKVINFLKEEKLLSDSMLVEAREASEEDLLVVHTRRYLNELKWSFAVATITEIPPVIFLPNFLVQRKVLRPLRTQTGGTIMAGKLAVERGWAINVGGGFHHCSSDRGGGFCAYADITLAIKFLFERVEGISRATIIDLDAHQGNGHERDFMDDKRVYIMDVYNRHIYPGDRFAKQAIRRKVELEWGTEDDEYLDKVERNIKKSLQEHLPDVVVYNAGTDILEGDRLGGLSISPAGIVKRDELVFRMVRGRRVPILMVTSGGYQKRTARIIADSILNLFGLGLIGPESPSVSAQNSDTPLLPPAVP
Protocol: as §1, §2, §3, §4

[1] = Mouse Pharmacokinetics, oral single dose; type: in vivo, male Swiss Albino mice; details: male, Swiss Albino, plasma, 5 mg/kg, formulation by footnote: a 20% CremEL in H20, b 1% CMC in water, c 2% DMSO, 0.2% Tween80, 97.8% of 1% CMC
Protocol: Example 187: Mouse Pharmacokinetics
A dose of 5 mg/kg in an appropriate formulation was administered by oral gavage to fasted male Swiss Albino mice (n=3), and the plasma was collected at 0, 0.25, 0.5, 1, 2, 4, 8, and 24 h. Plasma levels were measured by HPLC/MS/MS methods and the pharmacokinetic parameters were determined for individual animals from plasma concentration-time data using noncompartmental model 200-202 in Phoenix WinNonlin 6.3.

[2] = selectivity profile, read-out: HDAC Enzyme IC50, HDAC 1
[3] = selectivity profile, read-out: HDAC Enzyme IC50, HDAC 6

SMILES | pIC50 (HDAC1; read-out: Human HDAC1 IC50) | pIC50 (HDAC1; [2]) | pIC50 (HDAC2) | pIC50 (HDAC3/NCOR2) | pIC50 (HDAC4) | pIC50 (HDAC5) | pIC50 (HDAC6; read-out: Human HDAC6 IC50) | pIC50 (HDAC6; [3]) | pIC50 (HDAC7) | pIC50 (HDAC8) | pIC50 (HDAC9) | pIC50 (HDAC10) | pIC50 (HDAC11) | Cmax [1] | half-life [1]
CS(=O)(=O)NCC(Nc1ncc(-c2nnc(C(F)F)o2)cn1)c1ccc(OC(F)(F)F)cc1 (single isomer, unassigned) [122(+), N-(2-((5-(5-(difluoromethyl)-1,3,4-oxadiazol-2-yl)pyrimidin-2-yl)amino)-2-(4-(trifluoromethoxy)phenyl)ethyl)methanesulfonamide] | < 4.52 | < 4.52 | < 4.52 | < 4.52 | 5.08 | < 4.52 | 7.51 | 7.51 | 4.57 | < 4.52 | < 4.52 | < 4.52 | < 4.52 | 2930 ng/mL | 18.4 h
CS(=O)(=O)N(CC(Nc1ncc(-c2nnc(C(F)F)o2)cn1)c1ccc(F)cc1)CC(F)(F)F (single isomer, unassigned) [118(+), N-(2-((5-(5-(difluoromethyl)-1,3,4-oxadiazol-2-yl)pyrimidin-2-yl)amino)-2-(4-fluorophenyl)ethyl)-N-(2,2,2-trifluoroethyl)methanesulfonamide] | < 4.52 | < 4.52 | < 4.52 | < 4.52 | < 4.52 | < 4.52 | 7.54 | 7.54 | < 4.52 | < 4.52 | < 4.52 | < 4.52 | < 4.52 | 697 ng/mL | 23.2 h

Results, then the molecule that gave them:

pIC50 (HDAC1; read-out: Human HDAC1 IC50) | pIC50 (HDAC1; [2]) | pIC50 (HDAC2) | pIC50 (HDAC3/NCOR2) | pIC50 (HDAC4) | pIC50 (HDAC5) | pIC50 (HDAC6; read-out: Human HDAC6 IC50) | pIC50 (HDAC6; [3]) | pIC50 (HDAC7) | pIC50 (HDAC8) | pIC50 (HDAC9) | pIC50 (HDAC10) | pIC50 (HDAC11) | Cmax [1] | half-life [1] | SMILES
< 4.52 | < 4.52 | < 4.52 | < 4.52 | < 4.52 | < 4.52 | 7.82 | 7.82 | 4.78 | < 4.52 | < 4.52 | < 4.52 | < 4.52 | 1110 ng/mL | 2.7 h | CS(=O)(=O)NCC(Nc1ncc(-c2nnc(C(F)F)o2)cn1)c1ccc(F)cc1 (single isomer, unassigned) [38(+), N-(2-((5-(5-(difluoromethyl)-1,3,4-oxadiazol-2-yl)pyrimidin-2-yl)amino)-2-(4-fluorophenyl)ethyl) methanesulfonamide]
< 4.52 | < 4.52 | < 4.52 | < 4.52 | 4.97 | < 4.52 | 7.74 | 7.74 | 4.92 | < 4.52 | < 4.52 | < 4.52 | < 4.52 | 656 ng/mL | 4.3 h | CS(=O)(=O)NCC(Nc1ncc(-c2nnc(C(F)F)o2)cn1)c1ccc(OC(F)F)cc1 (single isomer, unassigned) [115(+), N-(2-(4-(difluoromethoxy)phenyl)-2-((5-(5-(difluoromethyl)-1,3,4-oxadiazol-2-yl)pyrimidin-2-yl)amino)ethyl)methanesulfonamide]
< 4.52 | < 4.52 | < 4.52 | < 4.52 | < 4.52 | < 4.52 | 7.55 | 7.55 | < 4.52 | < 4.52 | < 4.52 | < 4.52 | < 4.52 | 830 ng/mL | 4.3 h | O=S(=O)(NCC(Nc1ncc(-c2nnc(C(F)F)o2)cn1)c1ccc(F)cc1)C1CC1 (stereo not drawn) [Example 110, N-(2-((5-(5-(difluoromethyl)-1,3,4-oxadiazol-2-yl)pyrimidin-2-yl)amino)-2-(4-fluorophenyl)ethyl)cyclopropanesulfonamide]
